According to patent US6387938B1, “Benzimidazole derivatives” (Mochida Pharmaceutical Co., Ltd., priority 1996, dated 2002):

What was measured:
BALB/c male mice = assay: Toxicity test in mice, repeated oral dosing; assay type: in vivo
[1] = tested on: intraperitoneal eosinophilia; assay: Action on intraperitoneal eosinophilia model mice; assay type: in vivo, BALB/c male mice; conditions: BALB/c mice sensitized with swine roundworm extract; oral once a day, 10 times; dose 10 mg/kg/day
Protocol: Using five animals per group of BALB/c male mice (about 25 g in body weight), 0.11 mL of physiological saline containing 0.1 mg of swine roundworm extract was administered into the peritoneal cavity of each mouse to sensitize. The same treatment was repeated 7 days after the administration and, 3 days thereafter, each animal was sacrificed by phlebotomy, 3 mL of physiological saline containing 1% dipotassium ethylenediaminetetraacetate (EDTA) was administered by intraperitoneal injection and its abdominal region was massaged for about 30 seconds. […] A portion of the cell suspension was daubed on a slide glass using a spinner to carry out Diff-Quik staining, and then total leukocytes and eosinophils were counted to calculate the ratio of eosinophils in the total leukocytes. The number of total leukocytes in the cell suspension was measured using an automatic blood cell counter. The number of eosinophils in the cell suspension was calculated by multiplying the ratio of eosinophils in the total leukocytes by the number of total leukocytes. […] The dose of each compound to be tested and the intraperitoneal eosinophilia inhibition rate calculated by the following formula are shown in Table 1. […]

[2] = tested on: IFN-γ production of the spleen cell; assay: Action of IFN-γ production enhancement in tumor-bearing mouse; assay type: in vivo; conditions: B16F10 tumor-bearing C57BL/6 mouse, oral day 7 to day 21, spleen cells cultivated 24 hours with no stimulation, EIA, N = 7
Protocol: B16F10 cells cultivated in DMEM (Dulbecco's medium) supplemented with 10% FCS (fetal calf serum) were treated with trypsin, washed with PBS (phosphate buffered saline, pH 7.4), and adjusted in PBS to 1×10^7 cells/ml. The cells were subcutaneously injected in the abdomen of male C57BL/6 mouse (7 week old; body weight, about 23 g) at a dose of 0.1 ml/mouse. The day of tumor inoculation was designated day 0, and the tumor diameter was measured at day 7 with a vernier caliper. The tumor volume was calculated in terms of (minor diameter)^2×(major diameter), and the mice were grouped by using this value and the body weight for the indexes. […] The test compound was orally administered from day 7 to day 21. The solvent used was 0.5% HPMC (Hydroxy propyl methyl cellurose), and the control group was administered only with the solvent. At day 22, the mice were decapitated and the spleens were removed. After weighing the organs, the spleen was homogenized with a glass homogenizer, adjusted to 5×10^6 cells/ml, and cultivated in S-Clone SF-B medium (Sanko Pure Chemicals). The culture supernatant was collected after 24 hours, and […] at −80° C. The supernatant was measured for its IFN-γ concentration (pg/mL) by EIA (Enzyme Immunoassay). The measurement was conducted with an assay kit of ENDOGEN.

[3] = Hydrolysis of the ester bond in the rat; assay type: in vivo
SD female rats = assay: Toxicity test in rats, 14 days oral dosing; assay type: in vivo; conditions: 0.5% HPMC suspension, 300 mg/kg/day for 14 days
Protocol: SD female rats were orally treated with the compounds of Inventive Examples 54 and 55 suspended in 0.5% aqueous solution of HPMC at a dose of 300 mg/kg/day for 14 days.

[4] = 5% acacia suspension, 100 mg/kg/day for 7 days, observed for 3 days after administration
[5] = 0.5% HPMC suspension, 100 mg/kg/day for 4 days

## O=C(O)CC(O)c1cccc2nc(CCc3ccccc3)[nH]c12 (stereo not drawn)
other
  melting point: 103 to 105.3 °C

## O=C(O)CC(=O)c1cccc2nc(CCc3ccccc3)[nH]c12 [compound 1]
BALB/c male mice; [4]
  Abnormality in body weight and general symptoms: no abnormality
  Mortality: no mortal case

## COC(=O)CC(=O)c1cccc2nc(CCc3ccccc3)[nH]c12 [compound 2]
BALB/c male mice; [4]
  Abnormality in body weight and general symptoms: no abnormality
  Mortality: no mortal case

## CCOC(=O)CC(=O)c1cccc2nc(CCc3ccccc3)[nH]c12 [compound 3]
[1]
  Intraperitoneal eosinophilia inhibition rate (%): 67%

## COC(=O)CC(O)c1cccc2nc(CCc3ccccc3)[nH]c12 (stereo not drawn) [compound 5]
BALB/c male mice; [4]
  Abnormality in body weight and general symptoms: no abnormality
  Mortality: no mortal case

## CCOC(=O)CC(O)c1cccc2nc(CCc3ccccc3)[nH]c12 (stereo not drawn) [compound 6]
[2]; dose 10 mg/kg/day
  IFN-γ concentration: 125 pg/mL
[2]; dose 30 mg/kg/day
  IFN-γ concentration: 194 pg/mL
[2]; dose 100 mg/kg/day
  IFN-γ concentration: 263 pg/mL
BALB/c male mice; [5]
  Abnormality in body weight and general symptoms: no abnormality
  Mortality: No mortal case

## O=C(O)CC(O)c1cccc2nc(CCc3ccccc3)[nH]c12 (stereo not drawn) [compound 7]
BALB/c male mice; [5]
  Abnormality in body weight and general symptoms: no abnormality
  Mortality: No mortal case
BALB/c male mice; [4]
  Abnormality in body weight and general symptoms: no abnormality
  Mortality: no mortal case

## CCOC(=O)CC(=O)c1cccc2c1nc(CCc1ccccc1)n2C [compound 10]
BALB/c male mice; [4]
  Abnormality in body weight and general symptoms: no abnormality
  Mortality: no mortal case

## CCOC(=O)CC(O)c1cccc2nc(CCc3ccccc3)[nH]c12 (stereo not drawn) [compound 54]
[3]
  Ester bond hydrolysis to generate carboxyl group: hydrolyzed
BALB/c male mice; [5]
  Abnormality in body weight and general symptoms: no abnormality
  Mortality: No mortal case
SD female rats
  Relative liver weight: significant increase

## CCOC(=O)CC(O)c1cccc2nc(CCc3ccccc3)[nH]c12 (stereo not drawn) [compound 55]
[3]
  Ester bond hydrolysis to generate carboxyl group: hydrolyzed
BALB/c male mice; [5]
  Abnormality in body weight and general symptoms: no abnormality
  Mortality: No mortal case
SD female rats
  Relative liver weight: no such increase
